# In US7745636B2, “Hepatitis C virus inhibitors” (Bristol-Myers Squibb Company, priority 2006, dated 2010):
# Test system: HCV 1b-377-neo replicon cells
# Experiment: HCV Replicon assay, HCV 1b-377-neo replicon cells
# Type: cell-based, HCV 1b genotype
# Details: Hepatitis C virus, Table 2, read-out: Range (EC50 against HCV 1b)
row,SMILES,EC50 [nM]
1,"COC(=O)N[C@@H](C(=O)N[C@@H](C)c1ncc(-c2ccc(-c3ccc(-c4cnc([C@H](C)NC(=O)[C@H](NC(=O)OC)c5ccccc5)[nH]4)cn3)cc2)[nH]1)c1ccccc1 [Example 152j-23, methyl ((1R)-2-(((1S)-1-(5-(6-(4-(2-((1S)-1-(((2R)-2-((methoxycarbonyl)amino)-2-phenylace-tyl)amino)eth-yl)-1H-imidazol-5-yl)phenyl)-3-pyridinyl)-1H-imidazol-2-yl)ethyl)amino)-2-oxo-1-phenylethyl)carbamate]",0.001 to 0.999
2,"C[C@H](NC(=O)[C@@H](c1ccccc1)N(C)C)c1ncc(-c2ccc(-c3ccc(-c4cnc([C@H](C)NC(=O)[C@@H](c5ccccc5)N(C)C)[nH]4)cn3)cc2)[nH]1 [Example 152j-24, (2R)-2-(dimethylamino)-N-((1S)-1-(5-(6-(4-(2-((1S)-1-(((2R)-2-(dimethylamino)-2-phenylace-tyl)amino)eth-yl)-1H-imidazol-5-yl)phenyl)-3-pyridinyl)-1H-imidazol-2-yl)ethyl)-2-phenylacetamide]",0.001 to 0.999
3,"COC(=O)N[C@@H](C(=O)N[C@@H](C)c1ncc(-c2ccc(-c3cnc(-c4cnc([C@@H]5CCCN5C(=O)[C@H](NC(=O)OC)c5ccccc5)[nH]4)cn3)cc2)[nH]1)c1ccccc1 [Example 152j-28, methyl ((1R)-2-((2S)-2-(5-(5-(4-(2-((1S)-1-(((2R)-2-((methoxycarbonyl)amino)-2-phenylace-tyl)amino)eth-yl)-1H-imidazol-5-yl)phenyl)-2-pyrazinyl)-1H-imidazol-2-yl)-1-pyrrolidinyl)-2-oxo-1-phenylethyl)carbamate]",0.001 to 0.999
4,"COC(=O)N[C@@H](C(=O)N(C)[C@@H](C)c1ncc(-c2ccc(-c3ncc(-c4cnc([C@@H]5CCCN5C(=O)[C@@H](c5ccccc5)N5CCCCC5)[nH]4)cn3)cc2)[nH]1)c1ccccc1 [Example 152l-1, methyl ((1R)-2-(methyl((1S)-1-(4-(4-(5-(2-((2S)-1-((2R)-2-phenyl-2-(1-piperidinyl)acetyl)-2-pyrrolidinyl)-1H-imidazol-5-yl)-2-pyrimidinyl)phenyl)-1H-imidazol-2-yl)ethyl)amino)-2-oxo-1-phenylethyl)carbamate]",0.001 to 0.999
5,"COC(=O)N[C@@H](C(=O)N[C@@H](C)c1ncc(-c2ccc(-c3ncc(-c4cnc([C@@H]5CCCN5C(=O)[C@@H](c5ccccc5)N5CCCCC5)[nH]4)cn3)cc2)[nH]1)c1ccccc1 [Example 152l-2, methyl ((1R)-2-oxo-1-phenyl-2-(((1S)-1-(4-(4-(5-(2-((2S)-1-((2R)-2-phenyl-2-(1-piperidinyl)acetyl)-2-pyrrolidinyl)-1H-imidazol-5-yl)-2-pyrimidinyl)phenyl)-1H-imidazol-2-yl)ethyl)amino)ethyl) carbamate]",0.001 to 0.999
6,"COC(=O)N[C@@H](C(=O)N1CCC[C@H]1c1ncc(-c2ccc(-c3ncc(-c4cnc([C@@H]5CCCN5C(=O)[C@@H](c5ccccc5)N5CCCCC5)[nH]4)cn3)cc2)[nH]1)c1ccccc1 [Example 152l-3, methyl ((1R)-2-oxo-1-phenyl-2-((2S)-2-(4-(4-(5-(2-((2S)-1-((2R)-2-phenyl-2-(1-piperidinyl)acetyl)-2-pyrrolidinyl)-1H-imidazol-5-yl)-2-pyrimidinyl)phenyl)-1H-imidazol-2-yl)-1-pyrrolidinyl)ethyl) carbamate]",0.001 to 0.999
7,"CN(C)[C@@H](C(=O)N1CCC[C@H]1c1ncc(-c2ccc(-c3ccc(-c4cnc([C@@H]5CCCN5C(=O)[C@@H](c5ccccc5)N(C)C)[nH]4)nn3)nn2)[nH]1)c1ccccc1 [Example 153c-1, (1R,1′R)-2,2′-(3,3′-bipyridazine-6,6′-diylbis(1H-imidazole-5,2-diyl(2S)-2,1-pyrrolidinediyl))bis(N, N-dimethyl-2-oxo-1-phenylethanamine)]",1 to 99
8,"COC(=O)N[C@@H](C(=O)N1CCC[C@H]1c1ncc(-c2ccc(-c3ccc(-c4cnc([C@@H]5CCCN5C(=O)[C@H](NC(=O)OC)c5ccccc5)[nH]4)nn3)nn2)[nH]1)c1ccccc1 [Example 153c-2, dimethyl (3,3′-bipyridazine-6,6′-diylbis(1H-imidazole-5,2-diyl(2S)-2,1-pyrrolidinediyl((1R)-2-oxo-1-phenyl-2,1-ethanediyl))) biscarbamate]",1 to 99
9,"CN(C)[C@@H](C(=O)N1CCC[C@H]1c1ncc(-c2cnc(-c3ncc(-c4cnc([C@@H]5CCCN5C(=O)[C@@H](c5ccccc5)N(C)C)[nH]4)cn3)nc2)[nH]1)c1ccccc1 [Example 153c-3, (1R,1′R)-2,2′-(2,2′-bipyrimidine-5,5′-diylbis(1H-imidazole-5,2-diyl(2S)-2,1-pyrrolidinediyl))bis(N, N-dimethyl-2-oxo-1-phenylethanamine)]",1000 to 10000
10,"COC(=O)N[C@@H](C(=O)N1CCC[C@H]1c1ncc(-c2cnc(-c3ncc(-c4cnc([C@@H]5CCCN5C(=O)[C@H](NC(=O)OC)c5ccccc5)[nH]4)cn3)nc2)[nH]1)c1ccccc1 [Example 153c-4, dimethyl (2,2′-bipyrimidine-5,5′-diylbis(1H-imidazole-5,2-diyl(2S)-2,1-pyrrolidinediyl((1R)-2-oxo-1-phenyl-2,1-ethanediyl))) biscarbamate]",1000 to 10000
11,"CN(C)[C@@H](C(=O)N1CCC[C@H]1c1ncc(-c2cnc(-c3cnc(-c4cnc([C@@H]5CCCN5C(=O)[C@@H](c5ccccc5)N(C)C)[nH]4)cn3)cn2)[nH]1)c1ccccc1 [Example 153c-5, (1R,1′R)-2,2′-(2,2′-bipyrazine-5,5′-diylbis(1H-imidazole-5,2-diyl(2S)-2,1-pyrrolidinediyl))bis(N, N-dimethyl-2-oxo-1-phenylethanamine)]",1 to 99
12,"COC(=O)N[C@@H](C(=O)N1CCC[C@H]1c1ncc(-c2cnc(-c3cnc(-c4cnc([C@@H]5CCCN5C(=O)[C@H](NC(=O)OC)c5ccccc5)[nH]4)cn3)cn2)[nH]1)c1ccccc1 [Example 153c-6, dimethyl (2,2′-bipyrazine-5,5′-diylbis(1H-imidazole-5,2-diyl(2S)-2,1-pyrrolidinediyl((1R)-2-oxo-1-phenyl-2,1-ethanediyl))) biscarbamate]",1 to 99
13,"COC(=O)N[C@@H](C(=O)N[C@@H](C)c1ncc(-c2ccc(-c3ccc(-c4cnc([C@H](C)NC(=O)[C@H](NC(=O)OC)c5ccccc5)[nH]4)cn3)nc2)[nH]1)c1ccccc1 [Example 153c-7, dimethyl (2,2′-bipyridine-5,5′-diylbis(1H-imidazole-5,2-diyl(1S)-1,1-ethanediylimino((1R)-2-oxo-1-phenyl-2,1-ethanediyl))) biscarbamate]",1 to 99
14,"COC(=O)N[C@@H](C)C(=O)N1CCC[C@H]1c1nc(-c2cnc(-c3ccc(-c4cnc([C@@H]5CCCN5C(=O)[C@H](C)NC(=O)OC)[nH]4)c(F)c3)nc2)c[nH]1 [Example D67, methyl ((1S)-2-((2S)-2-(5-(2-fluoro-4-(5-(2-((2S)-1-(N-(methoxycarbonyl)-L-alanyl)-2-pyrrolidinyl)-1H-imidazol-5-yl)-2-pyrimidinyl)phenyl)-1H-imidazol-2-yl)-1-pyrrolidinyl)-1-methyl-2-oxoethyl)carbamate]",0.001 to 0.999
15,"COC(=O)N[C@H](C(=O)N1CCC[C@H]1c1nc(-c2cnc(-c3ccc(-c4cnc([C@@H]5CCCN5C(=O)[C@@H](NC(=O)OC)C(C)C)[nH]4)c(F)c3)nc2)c[nH]1)C(C)C [Example D68, methyl ((1S)-1-(((2S)-2-(5-(2-fluoro-4-(5-(2-((2S)-1-((2S)-2-((methoxycarbonyl)amino)-3-methylbutanoyl)-2-pyrrolidinyl)-1H-imidazol-5-yl)-2-pyrimidinyl)phenyl)-1H-imidazol-2-yl)-1-pyrrolidinyl)carbonyl)-2-methylpropyl) carbamate]",0.001 to 0.999
16,"COC(=O)N[C@@H](C(=O)N1CCC[C@H]1c1nc(-c2cnc(-c3ccc(-c4cnc([C@@H]5CCCN5C(=O)[C@H](NC(=O)OC)c5ccccc5)[nH]4)c(F)c3)nc2)c[nH]1)c1ccccc1 [Example D69, methyl ((1R)-2-((2S)-2-(5-(2-(3-fluoro-4-(2-((2S)-1-((2R)-2-((methoxycarbonyl)amino)-2-phenylacetyl)-2-pyrrolidinyl)-1H-imidazol-5-yl)phenyl)-5-pyrimidinyl)-1H-imidazol-2-yl)-1-pyrrolidinyl)-2-oxo-1-phenylethyl) carbamate]",0.001 to 0.999
17,"COC(=O)N[C@H](C(=O)N1CCC[C@H]1c1nc(-c2cnc(-c3ccc(-c4cnc([C@@H]5CCCN5C(=O)[C@@H](NC(=O)OC)[C@@H](C)OC)[nH]4)c(F)c3)nc2)c[nH]1)[C@@H](C)OC [Example D70, methyl ((1S,2R)-1-(((2S)-2-(5-(2-fluoro-4-(5-(2-((2S)-1-(N-(methoxycarbonyl)-O-methyl-L-threonyl)-2-pyrrolidinyl)-1H-imidazol-5-yl)-2-pyrimidinyl)phenyl)-1H-imidazol-2-yl)-1-pyrrolidinyl)carbonyl)-2-methoxypropyl) carbamate]",0.001 to 0.999
18,"COC(=O)N[C@@H](C)C(=O)N1CCC[C@H]1c1nc(-c2cnc(-c3ccc(-c4cnc([C@@H]5CCCN5C(=O)[C@H](C)NC(=O)OC)[nH]4)cc3)nc2)c[nH]1 [Example D73, methyl ((1S)-2-((2S)-2-(5-(4-(5-(2-((2S)-1-(N-(methoxycarbonyl)-L-alanyl)-2-pyrrolidinyl)-1H-imidazol-5-yl)-2-pyrimi-dinyl)phenyl)-1H-imidazol-2-yl)-1-pyrrolidinyl)-1-methyl-2-oxoethyl)carbamate]",0.001 to 0.999
19,"COC(=O)N[C@H](C(=O)N1CCC[C@H]1c1nc(-c2cnc(-c3ccc(-c4cnc([C@@H]5CCCN5C(=O)[C@@H](NC(=O)OC)C(C)C)[nH]4)cc3)nc2)c[nH]1)C(C)C [Example D74, methyl ((1S)-1-(((2S)-2-(5-(2-(4-(2-((2S)-1-((2S)-2-((methoxycarbonyl)amino)-3-methylbutanoyl)-2-pyrrolidinyl)-1H-imidazol-5-yl)phenyl)-5-pyrimidinyl)-1H-imidazol-2-yl)-1-pyrrolidinyl)carbonyl)-2-methylpropyl) carbamate]",0.001 to 0.999
